Measured values: patent publication US20230064292A1, “METHODS OF TREATING PSMA-POSITIVE CANCER USING RADIONUCLIDE THERAPY” (priority 2020, published 2023)

Columns and labels:
[1] = Kidney dosimetry by SPECT/CT or SPECT/MRI in patients; format: in vivo, human
Description: CTT1403 localization in various organs is accomplished by estimating dosimetry using SPECT/CT or SPECT/MRI imaging of the radioisotope component (using the gamma particle emission) of CTT1403, ^177Lu, up to 8 days after the first dose. […] Preclinical studies in rats with CTT1403 identified the kidneys as the dose limiting organ. Table 2, below, summarizes kidney dosimetry calculated from the first 15 patients enrolled in the study after receipt of escalating doses of CTT1403 and contrasts it with the predicted kidney exposure from rat studies. […] Preclinical studies in rats estimated expected kidney exposure of ˜5.2 Gy/GBq. […] CTT1403 may be sequestered in tumors and under exposing the kidney.

[2] = system: prostate specific antigen (PSA); assay: PSA levels in patients after CTT1403 administration; format: in vivo, human
Method: In order to investigate the pharmacokinetics of CTT1403, doses were administered by IV to fifteen subjects. The subjects each had histologically confirmed prostate adenocarcinoma that was metastatic and castration resistant (mCRPA). Subjects with de novo small cell carcinoma of the prostate were excluded. The subjects further had at least three metastatic foci avid for PSMA-specific PET agent CTT1057 or 68Ga-PSMA-11 uptake. PSMA avidity was defined as SUVmax>mediastinal blood pool. The subjects had received docetaxel, were ineligible for docetaxel, or had refused docetaxel. They all further had progression by the PCWG3 criteria during or after treatment with abiraterone, enzalutamide, and/or apalutamide, and had serum testosterone<50 ng/dL. Subjects without a history of bilateral orchiectomy were required to remain on a luteinizing hormone-releasing hormone (LHRH) analog during the course of the protocol therapy.
Reduction in prostate specific antigen (PSA) at least 12 weeks after therapeutic administration is generally thought to be predictive of therapeutic efficacy. PSA levels at screening, at CTT1403 administration and at specified time points after CTT1403 administration are shown for selected patients enrolled in the trial, including patients still actively under observation (Patients 13, 14, 15). Reduction in PSA compared to Cycle 1, Day 1 has been observed in 4 patients to date: Patient 002 (75% maximum reduction), Patient 4 (40% maximum reduction), Patient 13 (14% reduction to date) and Patient 15 (9% reduction to date).

[3] = patient 1, injected activity 0.73 GBq (19.6 mCi)
[4] = patient 2, injected activity 1.50 GBq (40.5 mCi)
[5] = patient 3, injected activity 2.03 GBq (54.8 mCi)
[6] = patient 4, injected activity 3.00 GBq (81.1 mCi)
[7] = patient 5, injected activity 2.95 GBq (79.8 mCi)
[8] = patient 6, injected activity 2.98 GBq (80.5 mCi)
[9] = patient 7, injected activity 4.48 GBq (121.1 mCi)
[10] = patient 8, injected activity 4.52 GBq (122.2 mCi)
[11] = patient 9, injected activity 3.53 GBq (95.5 mCi)
[12] = patient 10, injected activity 4.48 GBq (121.2 mCi)
[13] = patient 11, injected activity 5.66 GBq (153.0 mCi)
[14] = patient 12, injected activity 5.99 GBq (162.0 mCi)
[15] = patient 13, injected activity 5.99 GBq (162.0 mCi)
[16] = patient 14, injected activity 7.98 GBq (215.7 mCi)
[17] = patient 15, injected activity 7.77 GBq (210.0 mCi)

SMILES: O=C(O)CC[C@H](NP(=O)(O)OCCC[C@H](NC(=O)CC[C@H](NC(=O)CCCCCNC(=O)CCC(NC(=O)CCOCCOCCOCCOCCNC(=O)CCC(=O)N1Cc2ccccc2-c2c(nnn2CCCNC(=O)CN2CCN3CCN4CCN(CC2)CC(=O)[O][177Lu]([O]C(=O)C3)[O]C(=O)C4)-c2ccccc21)C(=O)NC(CCCCNC(=O)CCCc1ccc(I)cc1)C(=O)O)C(=O)O)C(=O)O)C(=O)O (stereo partly shown) [CTT1403]
- Kidney dose, Dose Gy/GBq ([1]; CTT1403 (7.5 GBq +/− 10%)): 0.689 Gy/GBq
- Kidney dose, Mean Dose (Gy) ([1]; CTT1403 (7.5 GBq +/− 10%)): 4.895 Gy
- Kidney dosimetry calculated from the first 15 patients ([1]; first 15 patients enrolled, escalating doses): 0.687 Gy/GBq
- factor by which clinical kidney dosimetry is lower than predicted by rat studies ([1]; first 15 patients vs rat prediction): ~10
- absorbed dose (Gy) - L. kidney [1, 3]: 0.441 Gy
- absorbed dose (Gy) - R. kidney [1, 3]: 0.430 Gy
- absorbed dose per GBq (Gy/GBq) - L. kidney [1, 3]: 0.608 Gy/GBq
- absorbed dose per GBq (Gy/GBq) - R. kidney [1, 3]: 0.593 Gy/GBq
- absorbed dose (Gy) - L. kidney [1, 4]: 0.915 Gy
- absorbed dose (Gy) - R. kidney [1, 4]: 0.876 Gy
- absorbed dose per GBq (Gy/GBq) - L. kidney [1, 4]: 0.610 Gy/GBq
- absorbed dose per GBq (Gy/GBq) - R. kidney [1, 4]: 0.584 Gy/GBq
- absorbed dose (Gy) - L. kidney [1, 5]: 1.54 Gy
- absorbed dose (Gy) - R. kidney [1, 5]: 2.07 Gy
- absorbed dose per GBq (Gy/GBq) - L. kidney [1, 5]: 0.757 Gy/GBq
- absorbed dose per GBq (Gy/GBq) - R. kidney [1, 5]: 1.020 Gy/GBq
- absorbed dose (Gy) - L. kidney [1, 6]: 1.97 Gy
- absorbed dose (Gy) - R. kidney [1, 6]: 1.70 Gy
- absorbed dose per GBq (Gy/GBq) - L. kidney [1, 6]: 0.655 Gy/GBq
- absorbed dose per GBq (Gy/GBq) - R. kidney [1, 6]: 0.565 Gy/GBq
- absorbed dose (Gy) - L. kidney [1, 7]: 4.41 Gy
- absorbed dose (Gy) - R. kidney [1, 7]: 4.84 Gy
- absorbed dose per GBq (Gy/GBq) - L. kidney [1, 7]: 1.494 Gy/GBq
- absorbed dose per GBq (Gy/GBq) - R. kidney [1, 7]: 1.638 Gy/GBq
- absorbed dose (Gy) - L. kidney [1, 8]: 2.75 Gy
- absorbed dose (Gy) - R. kidney [1, 8]: 2.65 Gy
- absorbed dose per GBq (Gy/GBq) - L. kidney [1, 8]: 0.922 Gy/GBq
- absorbed dose per GBq (Gy/GBq) - R. kidney [1, 8]: 0.889 Gy/GBq
- absorbed dose (Gy) - L. kidney [1, 9]: 2.54 Gy
- absorbed dose (Gy) - R. kidney [1, 9]: 2.83 Gy
- absorbed dose per GBq (Gy/GBq) - L. kidney [1, 9]: 0.567 Gy/GBq
- absorbed dose per GBq (Gy/GBq) - R. kidney [1, 9]: 0.632 Gy/GBq
- absorbed dose (Gy) - L. kidney [1, 10]: 3.45 Gy
- absorbed dose (Gy) - R. kidney [1, 10]: 3.54 Gy
- absorbed dose per GBq (Gy/GBq) - L. kidney [1, 10]: 0.764 Gy/GBq
- absorbed dose per GBq (Gy/GBq) - R. kidney [1, 10]: 0.784 Gy/GBq
- absorbed dose (Gy) - L. kidney [1, 11]: 1.71 Gy
- absorbed dose (Gy) - R. kidney [1, 11]: 1.85 Gy
- absorbed dose per GBq (Gy/GBq) - L. kidney [1, 11]: 0.484 Gy/GBq
- absorbed dose per GBq (Gy/GBq) - R. kidney [1, 11]: 0.522 Gy/GBq
- absorbed dose (Gy) - L. kidney [1, 12]: 2.26 Gy
- absorbed dose (Gy) - R. kidney [1, 12]: 2.75 Gy
- absorbed dose per GBq (Gy/GBq) - L. kidney [1, 12]: 0.505 Gy/GBq
- absorbed dose per GBq (Gy/GBq) - R. kidney [1, 12]: 0.612 Gy/GBq
- absorbed dose (Gy) - L. kidney [1, 13]: 3.32 Gy
- absorbed dose (Gy) - R. kidney [1, 13]: 3.08 Gy
- absorbed dose per GBq (Gy/GBq) - L. kidney [1, 13]: 0.587 Gy/GBq
- absorbed dose per GBq (Gy/GBq) - R. kidney [1, 13]: 0.543 Gy/GBq
- absorbed dose (Gy) - L. kidney [1, 14]: 3.15 Gy
- absorbed dose (Gy) - R. kidney [1, 14]: 2.81 Gy
- absorbed dose per GBq (Gy/GBq) - L. kidney [1, 14]: 0.525 Gy/GBq
- absorbed dose per GBq (Gy/GBq) - R. kidney [1, 14]: 0.469 Gy/GBq
- absorbed dose (Gy) - L. kidney [1, 15]: 2.65 Gy
- absorbed dose (Gy) - R. kidney [1, 15]: 2.50 Gy
- absorbed dose per GBq (Gy/GBq) - L. kidney [1, 15]: 0.443 Gy/GBq
- absorbed dose per GBq (Gy/GBq) - R. kidney [1, 15]: 0.417 Gy/GBq
- absorbed dose (Gy) - L. kidney [1, 16]: 5.53 Gy
- absorbed dose (Gy) - R. kidney [1, 16]: 5.41 Gy
- absorbed dose per GBq (Gy/GBq) - L. kidney [1, 16]: 0.693 Gy/GBq
- absorbed dose per GBq (Gy/GBq) - R. kidney [1, 16]: 0.678 Gy/GBq
- absorbed dose (Gy) - L. kidney [1, 17]: 4.89 Gy
- absorbed dose (Gy) - R. kidney [1, 17]: 3.75 Gy
- absorbed dose per GBq (Gy/GBq) - L. kidney [1, 17]: 0.629 Gy/GBq
- absorbed dose per GBq (Gy/GBq) - R. kidney [1, 17]: 0.482 Gy/GBq
- Reduction in PSA compared to Cycle 1, Day 1 ([2]; Patient 002, maximum reduction): 75%
- Reduction in PSA compared to Cycle 1, Day 1 ([2]; Patient 4, maximum reduction): 40%
- Reduction in PSA compared to Cycle 1, Day 1 ([2]; Patient 13, reduction to date): 14%
- Reduction in PSA compared to Cycle 1, Day 1 ([2]; Patient 15, reduction to date): 9%
- PSA Result ([2]; patient 2 (1.50 GBq), 4 Weeks Post Treatment): 405.6 µg/L
- PSA Result ([2]; patient 2 (1.50 GBq), 8 Weeks Post Treatment): 167.013 µg/L
- PSA Result ([2]; patient 2 (1.50 GBq), 12 Weeks Post Treatment): 45.716 µg/L
- PSA Result ([2]; patient 2 (1.50 GBq), Cycle 1-Day 1): 162.353 µg/L
- PSA Result ([2]; patient 2 (1.50 GBq), Cycle 1-Day 22): 185.132 µg/L
- PSA Result ([2]; patient 2 (1.50 GBq), Cycle 2-Day 1): 194.320 µg/L
- PSA Result ([2]; patient 2 (1.50 GBq), End of Treatment): 215.919 µg/L
- PSA Result ([2]; patient 4 (3.00 GBq), 8 Weeks Post Treatment): 41.80 µg/L
- PSA Result ([2]; patient 4 (3.00 GBq), Cycle 1-Day 1): 65.684 µg/L
- PSA Result ([2]; patient 4 (3.00 GBq), Cycle 1-Day 22): 77.876 µg/L
- PSA Result ([2]; patient 4 (3.00 GBq), End of Treatment): 115.658 µg/L
- PSA Result ([2]; patient 4 (3.00 GBq), Screening (before dosing)): 70.228 µg/L
- PSA Result ([2]; patient 13 (5.99 GBq), Cycle 1-Day 1): 146.133 µg/L
- PSA Result ([2]; patient 13 (5.99 GBq), Cycle 1-Day 22): 148.217 µg/L
- PSA Result ([2]; patient 13 (5.99 GBq), Cycle 2-Day 1): 135.620 µg/L
- PSA Result ([2]; patient 13 (5.99 GBq), Cycle 2-Day 22): 126.392 µg/L
- PSA Result ([2]; patient 13 (5.99 GBq), Screening (before dosing)): 166.793 µg/L
- PSA Result ([2]; patient 14 (7.98 GBq), Cycle 1-Day 1): 22.642 µg/L
- PSA Result ([2]; patient 14 (7.98 GBq), Cycle 1-Day 22): 142 µg/L
- PSA Result ([2]; patient 14 (7.98 GBq), Screening (before dosing)): 16.310 µg/L
- PSA Result ([2]; patient 15 (7.77 GBq), Cycle 1-Day 1): 595.739 µg/L
- PSA Result ([2]; patient 15 (7.77 GBq), Cycle 1-Day 22): 543.5 µg/L
- PSA Result ([2]; patient 15 (7.77 GBq), Screening (before dosing)): 410.363 µg/L
